Patent US20060153789A1, “Stimulation of hair regrowth” (priority 2002, published 2006)

Key:
[1] = test system: C57BL/6 mouse irradiated with 7.5 Gy gamma radiation; assay: Hair regrowth in an irradiated mouse (Example 1); assay type: in vivo; conditions: 12 days of treatment, FIG. 1A, untreated control showed no new growth hair
Excerpt: FIG. 1A. A C57BL/6 mouse irradiated with 7.5 Gy gamma radiation on Sep. 24, 2003 and given 12 days of [Sar, Met(02)^11]-substance P (Homspera™) treatment.
FIG. 1B. A C57BL/6 mouse irradiated with 7.5 Gy gamma radiation on Sep. 24, 2003 and given no Homspera™ treatment.
A C57BL/6 mouse was irradiated with 7.5 Gy gamma radiation on Sep. 24, 2003 and given 12 days of [Sar, Met(02)^11]-substance P (Homspera™) treatment. […] As a control, a C57BL/was 6 mouse irradiated with 7.5 Gy gamma radiation on Sep. 24, 2003 and given no Homspera™ treatment. No new growth hair was observed.

[2] = test system: C57BL/6 mice given Cobalt 60 gamma radiation; assay: Restoration of radiation-induced hair loss in mice, aerosol treatment (Example 2); assay type: in vivo, mouse; conditions: mice pre-exposed to 5 Gy or 2.5 Gy, then 10 Gy at day 75; hair loss over approximately 20% of body; one micromolar by aerosol 15 min/day, 9 days of treatment
Description: C57BL/6 mice were given a Cobalt 60 gamma radiation treatment on Sep. 24, 2002 of either 10 Gy, 7.5 Gy, 5 Gy, or 2.5 Gy. The 10 Gy mice died at an average of 11.3 days after the radiation exposure. All of the other mice in the other radiation exposure groups survived at least until Dec. 18, 2002. At 75 days after the initial radiation exposure, the 5 Gy and 2.5 Gy mice were administered a 10 Gy dose of Cobalt 60 gamma radiation. On the day of the second 10 Gy radiation exposure, it was noted that the 5 Gy and 2.5 Gy mice had hair loss over approximately 20% of their body with the most significant hair loss in their leg areas and around their ears. Half of the 5 Gy and 2.5 Gy (N=10) mice were administered a one micromolar Homspera™ dose by aerosol for 15 min/day beginning the day of the 10 Gy radiation exposure.

[3] = test system: C57BL/6 mice, lethal dose of gamma radiation (7.75 Gy); assay: Hair retention and immune status after a lethal dose of gamma radiation (Example 3); assay type: in vivo, mouse; conditions: for hair retention: photographed at Day +56 and Day +90 after radiation
Excerpt: FIG. 2A. Group 1 (90 day treatment of Homspera™) mice photographed at day 56 after radiation.
FIG. 2B. Group 2 (35 day treatment of Homspera™) mice photographed at day 56 after radiation.
FIG. 2C. Group 1 (90 day treatment of Homspera™) mice photographed at day 90 after radiation.
FIG. 2D. Group 2 (35 day treatment of Homspera™) mice photographed at day 90 after radiation.
C57BL/6 mice were divided into three groups. Groups 1 and 2 underwent a lethal dose of gammna radiation (7.75 Gy) on July 11th. Group 1 mice were treated with Homspera™ (50 micromolar for 35 days and then a maintenance dose of 10 micromolar until +90 days), and then they were killed at +90 days post-lethal radiation (October 9th). Their immune system status was normal compared to control mice (Group 3) that had not been treated with radiation and had not been treated with Homspera™. Group 2 mice received Homspera™ treatment for 35 days after radiation, and then the Homspera™ treatment was completely stopped.
There are two sets of pictures of the Group 1 and Group 2 mice: one set of pictures taken on September 5th at Day +56 after radiation (FIGS. 2A and 2B), and the other on October 9th at Day +90 after radiation (FIGS. 2C and 2D).

“[Sar, Met(02)^11]-substance P [Homspera™]” was tested, and the new hair growth [1] was “New growth (black) hair was observed”, the “restoration of hair loss” value [2] was “restored their hair loss” and the hair retention ([3]; Group 1: 7.75 Gy, 90 day treatment) was “retained their hair”. The immune system status ([3]; Group 1: 7.75 Gy, 50 micromolar for 35 days, then 10 micromolar until +90 days, at +90 days, compared to untreated non-irradiated control mice (Group 3)) was “normal” and the hair retention ([3]; Group 2: 7.75 Gy, 35 day treatment then stopped) was “retained their hair”.
